Like-named read-outs stand apart in the source and are kept apart here.
Columns and labels:
mouse mPGES-1 [1] = molecular target: T1, mouse mPGES-1 (Mus musculus, UniProt Q9JM51); experiment: Activity assay using recombinant mouse mPGES-1 (PGE2 enzyme immunoassay); assay type: biochemical
T1 construct: made in house; host or cells: FreeStyle 293-F cells, mPGES-1/pcDNA3 construct, crude microsomal preparation
T1 sequence (Q9JM51 1-153): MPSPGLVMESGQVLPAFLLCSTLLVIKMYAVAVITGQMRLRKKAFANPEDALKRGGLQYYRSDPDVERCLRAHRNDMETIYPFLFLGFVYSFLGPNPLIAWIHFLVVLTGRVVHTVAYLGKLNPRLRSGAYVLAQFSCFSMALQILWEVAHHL
Text: Our protocols for the protein preparation and in vitro activity assays were the same as described in previous reports[39],[41]–[43]. […] For the structure-activity relationship (SAR), we first investigated the impact of substitution on the central benzene ring on the inhibitory potency. […] The central benzene rings of 4i was originated from salicylaldehydes with chlorine substituted on 5-position. […] The length of the alkoxy side chain was also inspected in compounds 4b and 6.
(§1) 3. In vitro experimental tests
(§2) Preparation of mPGES-1 enzymes. Cloning of mPGES-1 and the protein preparation were described in our previous reports.15 Briefly, FreeStyle Max Expression system was used to express wild -type human and mouse mPGES-1 enzymes separately. FreeStyle 293-F cells were cultured following manufacturer’s manual in FreeStyle 293 expression medium on orbit rotate shaker in 8% CO 2 incubator at 37 °C. Cells were transfected with 1.5 µg/mL of mPGES-1/pcDNA3 construct using FreeStyle Max reagent at a cell density of 1 × 106 for 2 days. Transfected cells were collected, washed, and sonicated in TSES buffer (15 mM Tris-HCl, pH 8.0 plus 0.25 M sucrose, 0.1 mM EDTA and 1 mM DTT) on ice. The broken cells were first centrifuged at 12,500 × g for 10 min. The supernatant was further centrifuged at 105,000 × g for 1 hr at 4 °C. The pellet was washed and homogenized in PBS buffer. The crude microsomal mPGES -1 preparations were aliquoted and stored at -80 °C before use.
(§3) PGH2 (stored in dry ice). […] After 1
(§4) Following the formation of […]

human mPGES-1 = molecular target: T2, human mPGES-1 (Homo sapiens, UniProt O14684); experiment: Activity assay using recombinant human mPGES-1 (PGE2 enzyme immunoassay); assay type: biochemical
T2 construct: made in house; host or cells: FreeStyle 293-F cells, mPGES-1/pcDNA3 construct, crude microsomal preparation
T2 sequence (O14684 1-152): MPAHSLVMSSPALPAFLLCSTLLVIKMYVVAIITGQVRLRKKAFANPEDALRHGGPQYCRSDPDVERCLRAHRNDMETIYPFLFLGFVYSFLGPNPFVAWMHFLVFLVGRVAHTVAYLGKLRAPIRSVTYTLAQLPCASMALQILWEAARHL
Experimental: Our protocols for the protein preparation and in vitro activity assays were the same as described in previous reports[39],[41]–[43]. […] For the structure-activity relationship (SAR), we first investigated the impact of substitution on the central benzene ring on the inhibitory potency. […] The length of the alkoxy side chain was also inspected in compounds 4b and 6.
Purity was determined by HPLC (Waters 1525 Binary HPLC pump, Waters 2487 Dual λ Absorbance Detector, and Waters 717plus Autosampler, Milford, MA) at λ of […] using acetonitrile and 0.1% […]
TFA (70:30) as mobile phase.
as §1, §2, §3, §4

mice [2] = conditions: mouse, in vivo, po, 50 mg/kg
Experimental: (§5) Animals. Wild-type CD-1 mice (28-35 g) were ordered from Harlan (Indianapolis, IN), and housed
(§6) for a week prior to the experimental studies. All animals were allowed ad libitum access to food and water
(§7) and maintained on a 12 h light/12 h dark cycle, with the lights on at 8:00 am at a room temperature of 21–
(§8) 22 °C. Experiments were performed in a same colony room in accordance with the Guide for the Care and
(§9) Use of Laboratory Animals as adopted and promulgated by the National Institutes of Health. The animal
(§10) protocol was approved by the IACUC (Institutional Animal Care and Use Committee) at the University
(§11) Preparation of pictures during acute toxicity testing. Mice were divided into three groups and
(§12) treated with oral administration of a single dose of vehicle (Wesson vegetable oil, Memphis, TN), 4b (250
(§13) mg/mL in Wesson vegetable oil at the dose of 1 g/kg), and celecoxib (12.5 mg/mL in Wesson vegetable

rat enzyme (mPGES-1) = conditions: cited from earlier work
mouse mPGES-1 [3] = molecular target: T1, mouse mPGES-1; conditions: cited from earlier work
mice [4] = experiment: Acute toxicity/safety testing in mice after PO administration
Experimental: as §5, §6, §7, §8, §9, §10, §11, §12, §13

PGE2 levels in kidney = experiment: Wild-type mice based air-pouch model of inflammation (carrageenan), PGE2 by ELISA; conditions: for PGE2 levels in mice (kidney): 24 hours, vs vehicle
[5] = IC50 (nM) against mPGES-1, Mouse mPGES-1, Mean ± SD of measurements in triplicate

CC(C)c1ccc2c(c1)c(SC(C)(C)C)c(CC(C)(C)C(=O)O)n2Cc1ccc(Cl)cc1 [MK-886, reference compound]
inhibition of mouse mPGES-1 (mouse mPGES-1 [1]; concentration not given): without significant inhibition

O=C1NC(=O)C(=Cc2cc(Cl)ccc2OCCCCC2CCCCC2)C(=O)N1 [Compound 4i]
IC50 (human mPGES-1): 87 ± 27 nM | IC50 (mouse mPGES-1 [1]; [5]): 19100 ± 3490 nM | IC50 (mouse mPGES-1 [1]; IC50 against the mouse enzyme): > 10000 nM

Cc1ccc(-c2cc(C(F)(F)F)nn2-c2ccc(S(N)(=O)=O)cc2)cc1 [celecoxib]
bleeding spots on the inner side of stomach samples (mice [2]): at least one bleeding spot | finding at gastric mucosa (mice [2]): bleeding ulcer was observed | toxicity in mice (mice [2]): very toxic for stomach and other issues of mice

O=C1NC(=O)C(=Cc2ccc(OCCCC3CCCCC3)c(Cl)c2)C(=O)N1 [Compound 6]
IC50 (human mPGES-1): 69 ± 16 nM | IC50 (mouse mPGES-1 [1]; [5]): 292 ± 47 nM

N#Cc1cccc(C#N)c1-c1nc2c3ccc(Cl)cc3c3ccccc3c2[nH]1 [MF63, 2-(6-chloro-1H-phenanthro[9,10-d]imidazol-2-yl)-isophthalonitrile]
activity against the rat enzyme, previously reported (rat enzyme (mPGES-1)): without significant activity | inhibition against mouse mPGES-1 at 10 µM (mouse mPGES-1 [1]; 10 µM): no significant inhibition | activity against the mouse enzyme, previously reported (mouse mPGES-1 [3]): without significant activity

O=C1NC(=O)C(=Cc2ccc(OCCCCC3CCCCC3)c(Cl)c2)C(=O)N1 [Compound 4b]
IC50 (human mPGES-1): 33 ± 3 nM | IC50 (mouse mPGES-1 [1]; [5]): 157 ± 31 nM | bleeding spots on the inner side of stomach samples (mice [4]; 24 hr after PO, 1 g/kg in oil): did not find any bleeding spot | toxic signs in mice (mice [4]; PO, high dose up to 1 g/kg, observation for 14 days): did not cause any toxic sign | PGE2 levels in mice (kidney) (PGE2 levels in kidney; PO, 5 mg/kg single dose): significantly decreased | PGE2 levels in mice (kidney) (PGE2 levels in kidney; PO, 10 mg/kg single dose): significantly decreased | PGE2 levels in mice (kidney) (PGE2 levels in kidney; SC, 0.1 mg/kg single dose): significantly decreased | PGE2 levels in mice (kidney) (PGE2 levels in kidney; SC, 1 mg/kg single dose): significantly decreased | PGE2 levels in mice (kidney) (PGE2 levels in kidney; SC, 10 mg/kg single dose): significantly decreased | oral bioavailability (PGE2 levels in kidney; inferred from PO activity in mice): orally bioavailable
